{"source": "paper PMC6315541", "about": "“Nile Tilapia Derived Antimicrobial Peptide TP4 Exerts Antineoplastic Activity Through Microtubule Disruption” (Marine Drugs, 2018)", "key": {"[1]": {"system": "microtubule network (α-Tubulin) in A549 cells", "experiment": "Immunocytochemistry of microtubule network and peptide uptake in A549 cells", "assay_type": "cell-based, human", "settings": "for effect on microtubule network (α-Tubulin ICC): FITC-labeled mutants", "description": "(§1) To examine whether TP4 may affect microtubule dynamics, A549 cells were treated with TP4, and cytoskeletal elements were analyzed by immunocytochemistry (ICC). […] We then asked whether TP4 treatment may influence tubulin protein levels by performing Western blots on lysates from A549 cells that had been treated with vehicle or TP4. […] We next conducted a microtubule regrowth assay to further address whether TP4 may disrupt microtubule polymerization. TP4 was applied to A549 cells that had been treated with or without Nocodazole (20 μM) treatment for 6 h, which completely depolymerizes the microtubule network. The repolymerization of microtubules was then initialized by the addition of fresh recovery medium, and regrowth was analyzed by ICC.\nWhile the reduced toxicity may result from impaired binding to tubulin, it is also possible that such effects may be caused by conformational changes in the TP4 mutants, see Supplementary Figure S1C,D, which prevent intracellular penetration. To test this possibility, ICC was conducted to evaluate the cellular localization and the effects on microtubules. […] For both Gly and Ala substitution mutants, FITC-labeled TP4 mutants were able to be taken up intracellularly, see Figure 6B, panels MT-1 to MT-6. However, the microtubule network was only affected in MT-1- and MT-4-treated cells and not the other mutant-treated groups, as shown in Figure 6B.\nFigure 6 Loss of cancer-killing ability in TP4 mutants. (A) Cell viability in A549 cells was determined by the adenosine triphosphate (ATP) assay following treatment with varying doses of TP4 and TP4 mutants for 24 h. Multiple wells were analyzed for each assay. Results represent the mean ± SD. Statistical comparisons between groups were performed using two-way ANOVA: a, not significant; b, p < 0.05; d, p < 0.001. Statistical analyses are shown in Supplementary Table S1. (B) Cells were stained for TP4 (WT panel), FITC (MT-1 to MT-6 panels), α-Tubulin, and F-actin. Hoechst33342 was used for nuclei staining. Boxed regions are magnified in the furthest right panels. […] Bar: 20 μm.\nCells were stained with TP4 (1:1000), FITC (1:500, ThermoFisher Scientific, clone 1F8-1E4), α-Tubulin (1:500), and appropriate Alexa Flour conjugated secondary antibody (1:500; ThermoFisher Scientific, Eugene, OR, USA). Hochest33342 was used for nuclear staining, and Alexa Fluor 647-conjugated phalloidin (1:200, Thermo Fisher Scientific, Eugene, OR, USA) was used to stain F-actin. For the confocal microscopic analysis, samples were mounted with fluorescent mounting medium (ProLong Gold Antifade Reagent, ThermoFisher Scientific, Eugene, OR, USA) and images were obtained with a FV3000 laser-scanning confocal microscope (Olympus), using a 60 × objective lens (Plapon 60 × OSC2, N.A. 1.4, oil) with the 4′,6-diamidino-2-phenylindole (DAPI) ([…]), green fluorescent protein (GFP) (EX 470, EM 525 for enhanced GFP (EGFP)), and Cy5 ([…]) emission filters. FV31S software (Olympus, Tokyo, Japan) was used for image acquisition."}, "[2]": {"system": "α-Tubulin protein level in A549 cells", "experiment": "Western blot of α-Tubulin protein level in A549 cells", "assay_type": "cell-based, human", "settings": "TP4 vs vehicle, Figure 2B", "description": "as §1\nFigure 2 TP4 disrupts the microtubule network in cancer cells. (A) Cells were stained for α-Tubulin and F-actin. Hoechst33342 was used to stain nuclei. Arrows indicate cells with negative α-Tubulin staining. Bar: 20 μm. (B) Total lysates from cells with mock (labeled C) or TP4 treatment (labeled T) were analyzed by Western blot using antibodies against GAPDH and α-Tubulin. Quantification of the α-Tubulin signal normalized to GAPDH is shown. Mr is the molecular weight. […] Bar: 20 μm (D) Quantification of the number of cells with Tubulin-positive and Tubulin-negative staining. […]"}}}
{"sequence": "FIHHIIGGLFSAGKAIHRLIRRRRR [TP4, synthesized Nile tilapia-derived antimicrobial peptide, Tilapia piscidin 4]", "values": [{"measurement": "effect on microtubule network (α-Tubulin ICC; F-actin not affected)", "setting": "[1]; A549 cells treated with TP4, Figure 2A", "value": "clearly affected"}, {"measurement": "effect on microtubule network (α-Tubulin ICC)", "setting": "[1]; A549 cells, TP4 6.71 μM, 3 h, Figure 6B", "value": "microtubule defects were clearly observed"}, {"measurement": "effect on microtubule network (α-Tubulin ICC)", "setting": "[1]; A549 cells, TP4 6.71 μM, 3 h, Figure 6B, listed as WT", "value": "microtubule abnormalities were observed"}, {"measurement": "intracellular uptake (ICC, TP4 antibody or FITC)", "setting": "[1]; A549 cells, TP4 6.71 μM, 3 h, mutants FITC-labeled, Figure 6B", "value": "peptide penetration"}, {"measurement": "level of α-Tubulin protein (normalized to GAPDH)", "setting": "[2]", "value": "not significantly affected"}]}
